Experimental data taken from PubChem BioAssay AID2842 (Southern Research Institute, 2010).
≈ marks a conversion by molar mass, not a printed value.

These compounds were tested on M. tuberculosis H37Rv growth inhibition (assay: Mycobacterium tuberculosis H37Rv growth inhibition, putative kinase inhibitor library, confirmatory dose response (AID 2842);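 also: bacteria incubated one week before Alamar blue readout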).
Work on Cc1nnc(SCC(=O)Nc2ccc3c(c2)OCCO3)n(N)c1=O yielded an IC90 of 23.1 µg/mL (≈ 66.2 µM).
Cc1ccc(C)c2sc(N(CCCn3ccnc3)C(=O)c3ccc(F)cc3)nc12 gave an IC90 of 4.35 µg/mL (≈ 10.6 µM).
Cc1nc2c(ccc3nc(NC(=O)c4ccc(C(C)(C)C)cc4)sc32)s1 gave an IC90 of 3.24 µg/mL (≈ 8.49 µM).
In the case of Cc1ccc(-c2nnc(NC(=O)c3ccc([N+](=O)[O-])o3)o2)c(C)c1, the IC90 is reported as 0.69 µg/mL (≈ 2.1 µM).
In the case of Cc1oc2c(c1C(=O)NCc1cccnc1)C(=O)c1ccccc1C2=O, the IC90 is reported as 8.29 µg/mL (≈ 23.9 µM).
CC(C)CCn1c(N2CCN(Cc3cccc(Cl)c3)CC2)nc2c1c(=O)[nH]c(=O)n2C was tested, and the IC90 was 14.1 µg/mL (≈ 31.8 µM).
In the case of CCOC(=O)/C=C/CSc1nc2sc3c(c2c(=O)[nH]1)CCCC3, the IC90 is reported as 12.8 µg/mL (≈ 36.6 µM).
With CCOc1ccc2nc(Nc3nc4c(OC)cccc4s3)sc2c1 the IC90 was 3.75 µg/mL (≈ 10.5 µM).
Work on O=C(Nc1nnc(-c2ccc(Cl)cc2)o1)c1ccccc1Br yielded an IC90 of 2.46 µg/mL (≈ 6.5 µM).
Compound Cc1cc(NC(=O)NCCCSc2nc3ccccc3o2)no1 has an IC90 of 29.1 µg/mL (≈ 87.5 µM).
Compound Cc1ccc(C(=O)Nc2nnc(-c3ccc(C)cc3C)o2)c(C)c1 has an IC90 of 3.99 µg/mL (≈ 12.4 µM).
In the case of COc1ccc(NC(=O)CCCN2C(=O)/C(=C\c3ccco3)SC2=S)cc1, the IC90 is reported as 3.3 µg/mL (≈ 8.2 µM).
COc1ccc2nc(Nc3nc4c(s3)C(=O)CC(C)(C)C4)sc2c1 showed an IC90 of 15.7 µg/mL (≈ 43.7 µM).
In the case of CC(=O)N1CCc2c(sc(NC(=O)c3cccc(C)c3)c2C(N)=O)C1, the IC90 is reported as 17.1 µg/mL (≈ 47.8 µM).
Work on O=C(Nc1cccc(C(F)(F)F)c1)NC1CC(=O)N(c2ccc(F)cc2)C1 (stereo not drawn) yielded an IC90 of 13.2 µg/mL (≈ 34.6 µM).
Compound O=C(Nc1ncc(Cc2ccc(F)cc2)s1)c1cccc(-n2cnnn2)c1 has an IC90 of 10.2 µg/mL (≈ 26.7 µM).
Work on Cc1cccc(Cn2cc3c(-c4ccc(C)c(C)c4)nnc-3c3cc4c(cc32)OCCO4)c1 yielded an IC90 of 3.47 µg/mL (≈ 7.97 µM).
With CC(=O)N1CCc2c(sc(NC(=O)C(C)C)c2-c2nc3ccccc3s2)C1 the IC90 was 13.5 µg/mL (≈ 33.7 µM).
Cc1ccc(C)c(-c2nnc(NC(=O)c3ccc([N+](=O)[O-])o3)o2)c1 gave an IC90 of 1.29 µg/mL (≈ 3.93 µM).
With COc1cccc(Nc2nc3ccc(OC)cc3s2)c1 the IC90 was 23.3 µg/mL (≈ 81.2 µM).
In the case of Cc1ccc(C(=O)Nc2sc3c(c2C(N)=O)CCN(C)C3)cc1C, the IC90 is reported as 18.8 µg/mL (≈ 54.7 µM).
O=C(Nc1nnc(-c2ccccc2)o1)c1nc2ccccc2s1 showed an IC90 of 5.84 µg/mL (≈ 18.1 µM).
Fc1ccc(N2CCN(c3nc(Nc4ccccc4)c4nccnc4n3)CC2)cc1 showed an IC90 of 1.69 µg/mL (≈ 4.21 µM).
For Cc1ccc(C(=O)Nc2nnc(-c3ccncc3)o2)cc1C, the IC90 was 26.8 µg/mL (≈ 91 µM).
COc1ccc2nc(N=Nc3c(C)[nH]n(-c4ccccc4)c3=O)sc2c1 was tested, and the IC90 was 7.7 µg/mL (≈ 21.1 µM).
In the case of CCOC(=O)N1CCN(c2ncnc3c2cnn3-c2ccc(C)c(Cl)c2)CC1, the IC90 is reported as 12.2 µg/mL (≈ 30.5 µM).
Compound COc1ccc(CC(=O)N2CCN=C2SCc2ccc(C(F)(F)F)cc2)cc1 has an IC90 of 23.9 µg/mL (≈ 58.4 µM).
With CCOC(=O)c1ccc(NC(=O)CSc2ccc(F)cc2)cc1 the IC90 was 5.47 µg/mL (≈ 16.4 µM).
For Cc1ccc(NCCCn2c(C)c(C)n3c4c(=O)[nH]c(=O)n(C)c4nc23)c(C)c1, the IC90 was 14.3 µg/mL (≈ 36.2 µM).
Compound COc1ccc(-c2nnc(NC(=O)c3cc4ccccc4cc3OC)o2)cc1 has an IC90 of 26.3 µg/mL (≈ 70.2 µM).
COc1ccccc1-c1nnc(NC(=O)CCc2ccccc2)o1 was tested, and the IC90 was 6.99 µg/mL (≈ 21.6 µM).
O=C1NC(=S)NC(=O)C1=Cc1nc(-c2ccccc2Cl)n2ccccc12 was tested, and the IC90 was 10.8 µg/mL (≈ 28.2 µM).
Compound COc1ccc(Nc2nc(N3CCN(Cc4ccccc4)CC3)nc3nccnc23)cc1 has an IC90 of 4.69 µg/mL (≈ 11 µM).
Work on O=C(NC1NC(c2ccccc2)=CS1)c1ccc([N+](=O)[O-])s1 (stereo not drawn) yielded an IC90 of 3.42 µg/mL (≈ 10.3 µM).
O=C(Nc1nnc(-c2ccccc2)o1)c1cc(-c2cccs2)nc2ccccc12 was tested, and the IC90 was 0.72 µg/mL (≈ 1.81 µM).
Compound Cc1ccc(C)c(-c2nnc(NC(=O)c3ccccc3[N+](=O)[O-])o2)c1 has an IC90 of 4.88 µg/mL (≈ 14.4 µM).
Compound COc1ccccc1-c1nnc(NC(=O)c2sc3ccccc3c2Cl)o1 has an IC90 of 5.3 µg/mL (≈ 13.7 µM).
Compound COc1ccccc1-c1nnc(NC(=O)c2ccc(-c3ccccc3)cc2)o1 has an IC90 of 1.48 µg/mL (≈ 3.98 µM).
With CCOC(=O)c1cnc2ccc(OCC)cc2c1Nc1ccccc1C the IC90 was 8.82 µg/mL (≈ 25.2 µM).
In the case of O=C(Nc1nnc(-c2cccs2)o1)c1cccc(C(F)(F)F)c1, the IC90 is reported as 3.48 µg/mL (≈ 10.3 µM).
Work on Cc1cc(NC(=O)CSc2nnc(-c3ccncc3)o2)no1 yielded an IC90 of 7.04 µg/mL (≈ 22.2 µM).
Work on CC(C)CCn1c(NCCc2ccccc2)nc2c1c(=O)n(C)c(=O)n2C yielded an IC90 of 11 µg/mL (≈ 29.9 µM).
COc1ccc(-c2nsc(SCC(=O)Nc3ccc(C(C)=O)cc3)n2)cc1 showed an IC90 of 25.9 µg/mL (≈ 64.9 µM).
O=C(Nc1nnc(-c2ccc(Cl)cc2)o1)c1ccc(Br)cc1 was tested, and the IC90 was 3.26 µg/mL (≈ 8.61 µM).
O=C(c1cccs1)N(CCCn1ccnc1)c1nc2ccc(F)cc2s1 gave an IC90 of 3.01 µg/mL (≈ 7.79 µM).
For Cc1cn2c3c(=O)[nH]c(=O)n(C)c3nc2n1CCCNc1ccccc1, the IC90 was 3.69 µg/mL (≈ 10.5 µM).
Compound O=C(Nc1nnc(-c2ccccc2Cl)o1)C1=COCCO1 has an IC90 of 4.3 µg/mL (≈ 14 µM).
For O=C(Nc1nnc(-c2ccc(Cl)cc2)o1)c1ccco1, the IC90 was 1.11 µg/mL (≈ 3.83 µM).
NC(=O)c1c(NC(=O)/C=C/c2ccc([N+](=O)[O-])s2)sc2c1CCCC2 gave an IC90 of 4.6 µg/mL (≈ 12.2 µM).
Compound NNC(=O)c1ccc(-c2ccccc2Cl)o1 has an IC90 of 3.96 µg/mL (≈ 16.7 µM).
Compound O=C(COc1ccc2ccccc2c1)Nc1nnc2n1CCS2 has an IC90 of 23.6 µg/mL (≈ 72.2 µM).
CCCCOc1cccc(C(=O)Nc2nnc(-c3cc(Cl)ccc3Cl)o2)c1 showed an IC90 of 12.9 µg/mL (≈ 31.8 µM).
Work on CC(C)C(=O)Nc1nnc(-c2ccc(Br)cc2)o1 yielded an IC90 of 1.24 µg/mL (≈ 4 µM).
With Cc1ccc(C)c(-c2nnc(NC(=O)C3=COCCO3)o2)c1 the IC90 was < 0.2 µg/mL.
In the case of Cc1ccc(-c2nnc(NC(=O)c3ccccc3Br)o2)c(C)c1, the IC90 is reported as 0.27 µg/mL (≈ 0.725 µM).
For Cc1ccc(-c2nnc(NC(=O)c3ccc(S(=O)(=O)N(C)C4CCCCC4)cc3)o2)c(C)c1, the IC90 was 39.2 µg/mL (≈ 83.6 µM).
In the case of O=C(CSc1ncnc2c1nnn2Cc1ccc(F)cc1)N1CCOCC1, the IC90 is reported as 19.8 µg/mL (≈ 50.9 µM).
Work on O=C(/C=C/c1cccs1)N(CCCn1ccnc1)c1nc2ccccc2s1 yielded an IC90 of 1.43 µg/mL (≈ 3.62 µM).
In the case of Cc1ccc(C)c(-c2nnc(NC(=O)c3cc([N+](=O)[O-])ccc3Cl)o2)c1, the IC90 is reported as < 0.2 µg/mL.
For CC1(C)Cc2c(sc(NC(=O)c3ccc(Cc4ccccc4)cc3)c2C(N)=O)C(C)(C)N1, the IC90 was 10.4 µg/mL (≈ 23.3 µM).
In the case of O=C(Nc1nnc(C2=COCCO2)o1)c1cccc(Cl)c1, the IC90 is reported as 3.49 µg/mL (≈ 11.3 µM).
For O=C(c1ccco1)N(CCCn1ccnc1)c1nc2ccc(Br)cc2s1, the IC90 was 0.74 µg/mL (≈ 1.72 µM).
In the case of Cc1ccc(C)c(-c2nnc(NC(=O)c3cccc([N+](=O)[O-])c3)o2)c1, the IC90 is reported as 29.6 µg/mL (≈ 87.4 µM).
In the case of COc1cccc2sc(Nc3nc4c(s3)CCCC4)nc12, the IC90 is reported as 5.82 µg/mL (≈ 18.3 µM).
Compound Cc1ccc(C)c(N2CCN(C(=O)CCCCCn3c(=O)[nH]c4ccsc4c3=O)CC2)c1 has an IC90 of 10.9 µg/mL (≈ 24 µM).
O=C(Nc1nnc(-c2ccc3c(c2)CCCC3)o1)c1c(F)cccc1F was tested, and the IC90 was 4.5 µg/mL (≈ 12.7 µM).
With Cc1cccc2sc(N(CCCn3ccnc3)C(=O)c3ccco3)nc12 the IC90 was 0.83 µg/mL (≈ 2.26 µM).
Compound COc1cc(OC)cc(-c2nnc(NC(=O)c3ccc([N+](=O)[O-])o3)o2)c1 has an IC90 of 9.08 µg/mL (≈ 25.2 µM).
Work on O=C(COc1ccccc1)Nc1nnc(-c2cc(Cl)ccc2Cl)o1 yielded an IC90 of 27.8 µg/mL (≈ 76.4 µM).
Compound Cc1ccc2sc(N(CCCn3ccnc3)C(=O)COc3ccccc3)nc2c1C has an IC90 of 5.39 µg/mL (≈ 12.8 µM).
Work on Cc1ccc(C)c(-c2nnc(NC(=O)c3ccccc3)o2)c1 yielded an IC90 of 24.5 µg/mL (≈ 83.7 µM).
Work on Cc1c(C)n2c3c(=O)[nH]c(=O)n(C)c3nc2n1-c1ccccc1O yielded an IC90 of 0.75 µg/mL (≈ 2.31 µM).
CCOc1ccc2c(c1)O/C(=C\c1cccc(OCC(=O)OC)c1)C2=O showed an IC90 of 1.66 µg/mL (≈ 4.68 µM).
COc1ccc(C(=O)Nc2nnc(-c3cc(C)ccc3C)o2)c(OC)c1 was tested, and the IC90 was 13.4 µg/mL (≈ 38 µM).
O=C(Nc1nnc(-c2cc(Cl)ccc2Cl)o1)c1ccc2c(c1)CCCC2 showed an IC90 of 25.8 µg/mL (≈ 66.5 µM).
Compound O=C(Nc1nnc(-c2ccc(Cl)cc2)o1)C1CCCCC1 has an IC90 of 5.6 µg/mL (≈ 18.3 µM).
In the case of COc1cccc(C(=O)Nc2nc(-c3cccs3)cs2)c1, the IC90 is reported as 19.5 µg/mL (≈ 61.5 µM).
Work on CCCCC(=O)Nc1nnc(-c2cc(Cl)ccc2Cl)o1 yielded an IC90 of 32.4 µg/mL (≈ 103 µM).
For O=C(COc1ccc(Cl)cc1)N1CCN(c2ccc(N3CCCCC3)nn2)CC1, the IC90 was 14.3 µg/mL (≈ 34.3 µM).
Cc1ccc(Nc2nc(N3CCN(c4ccccc4)CC3)nc3nccnc23)cc1C gave an IC90 of 32 µg/mL (≈ 77.7 µM).
CSc1ccccc1-c1nnc(NC(=O)c2cc([N+](=O)[O-])ccc2Cl)o1 showed an IC90 of 2.12 µg/mL (≈ 5.42 µM).
For Cc1ccc(C)c(-c2nnc(NC(=O)Cc3cccc4ccccc34)o2)c1, the IC90 was 6.3 µg/mL (≈ 17.6 µM).
COc1ccc2nc(Nc3sc4c(c3C(N)=O)CCC(C)C4)sc2c1 (stereo not drawn) showed an IC90 of 27.8 µg/mL (≈ 74.5 µM).
With COc1ccccc1-c1nnc(Nc2nc3ccc(SC)cc3s2)o1 the IC90 was 15.9 µg/mL (≈ 42.9 µM).
Compound O=C1CC(c2nc3ccccc3n2Cc2ccccc2Cl)CN1c1ccccc1F (stereo not drawn) has an IC90 of 18.1 µg/mL (≈ 43.2 µM).
Work on Cc1ccc(-c2nnc(NC(=O)c3ccccc3F)o2)c(C)c1 yielded an IC90 of 1.31 µg/mL (≈ 4.21 µM).
For COc1ccc(Nc2nc(Nc3ccc(C)c(C)c3)nc3nccnc23)cc1, the IC90 was 3.93 µg/mL (≈ 10.6 µM).
Compound N=C1SCC(=O)N1c1ncc(Cc2cccc(Cl)c2)s1 has an IC90 of 2.11 µg/mL (≈ 6.52 µM).
